Several values for one entry are separate records, joined by “and”; a condition that tells them apart may be missing. Equal values may be shown once.

In series [1] the target is T1, NUDT5 in HL-60 cell lysates (Homo sapiens, UniProt Q9UKK9).
T1 construct: endogenous in cells; host or cells: HL-60
Nature of the series: cell lysate CETSA (HT-CETSA). The settings on record: 20 µM, 83 °C. Format: binding. How it is done:
Target engagement in cells was determined by the cellular thermal shift assay (CETSA)[29]. Briefly, cell lysate thermal shift assays were performed with 1 × 10^6 HL-60 cells per temperature/condition. Cells were collected and washed once with PBS and resuspended in TBS with protease inhibitor cocktail (Mini cOmplete, EDTA-free, Roche) at 60 µL/1 × 10^6 cells. The cells were then aliquoted and lysed by freeze-thawing three times with 3-min incubations (3x, 3 min.+3 min.) using an ethanol/dry ice bath and water bath at 37 °C. The lysates were then centrifuged at 20,000×g for 20 min at 4 °C to remove cellular debris. Supernatants were then transferred to PCR strip tubes and treated with 0.5 µL DMSO (0.8% v/v final) or 20 µM inhibitor for 20 min at room temperature. Lysates with compounds were heated at the indicated temperature in a Veriti Thermal Cycler (Applied Biosystems) for 3 min, then cooled for another 3 min at room temperature. They were then centrifuged at 20 000 × g for 20 min at 4 °C to pellet protein aggregates and 45 µL was removed and prepared for western blotting analysis.

Series [2] relates to T47D cells. Nature of the series: cell viability by resazurin. As to conditions: 72 h. It counts as cell-based. How it is done:
Cell viability was assessed by resazurin[9]. 5000 HL-60 cells (or 1000 U-2 OS/2000 T47D cells) were seeded per well on a 96-well plate. The following morning, compounds (or the equivalent amount of DMSO) were added to obtain the final concentrations indicated and the cells were incubated at 37 °C for 72 h with resazurin added at 0.02 mg/mL for the last 2–6 h. Resorufin fluorescence was detected at […] with a Hidex Sense fluorescent plate reader. Viability curves were fit using the sigmoidal dose-response (variable slope) function in GraphPad Prism 7.
(The colour change of resazurin is a common sign of viable cells or microbes.)

The target of series [3] is T2, human NUDT5 (Homo sapiens, UniProt Q9UKK9).
T2 construct: His-tag (N); made in house; host or cells: E. coli BL21 (DE3) R3 pRARE2
Nature of the series: enzyme-coupled malachite green assay (MG assay), ADPR hydrolysis. It counts as biochemical. The settings on record: NUDT5, ADPR substrate; read-out: MG assay IC50 (Biochemical IC50). The text has this:
We next sought to develop small molecule NUDT5 inhibitors to further probe the role of NUDT5 in ADPR metabolism. A high-throughput, screening-compatible NUDT5 inhibition assay was established using slight modifications to the aforementioned MG procedure (Fig. 2a)[15],[27]. Briefly, ADPR, NUDT5 and calf intestinal alkaline phosphatase (CIP) were combined in a coupled enzymatic assay, as described in the online methods. In turn, ADPR was hydrolyzed to AMP and R5P by NUDT5, and the released R5P was further degraded to ribose and inorganic phosphate (Pi) by CIP. Free Pi was subsequently detected using the malachite green reagent. The screen was conducted using a combination of the Chemical Biology Consortium of Sweden (CBCS) primary screening set and several commercial libraries from Enamine, TimTec, Maybridge and ChemDiv. In total, ~72 000 distinct chemical entities were screened for their potential inhibition of NUDT5 at a concentration of 10 µM (Supplementary Table 1, Supplementary Fig. 2a, b). Execution of this screening campaign was split between two different occasions. The screening performance in the two screening campaigns was excellent (average z´ factors of 0.87 and 0.85, Supplementary Fig. 2c), resulting in a hit limit as defined by the average and three standard deviations of the library compound responses of 10.1 and 18.4% inhibition, respectively (Supplementary Table 1, Supplementary Fig. 2a, b). This translated to 53 and 475 hits (0.3 and 0.8% hit rate, respectively), yielding 528 total hits from the 2 separate screening occasions.
Activity of NUDT5 and MTH1 with a panel of potential substrates [2-OH-ATP, 2-OH-dATP, 8-oxo-dGDP, GDP and 8-oxo-GTP (Jena Biosciences), 8-oxo-dGTP (TriLink Biotechnologies), dATP (ThermoFisher Scientific), dGTP, GTP and ADPR (Sigma-Aldrich)] was assessed in reaction buffer (100 mM Tris Acetate pH 7.5, 40 mM NaCl, 10 mM Mg Acetate) at 22 °C. For ADPR, alkaline phosphatase from bovine intestinal mucosa (10 U/ml; Sigma-Aldrich) was added as coupled enzyme, while other substrates were coupled to E. coli pyrophosphatase (0.2 U/mL, Sigma-Aldrich). After 30 min incubation with shaking, formed inorganic phosphate was detected by addition of malachite green reagent. Absorbance at 630 nm was read after 15 min incubation with shaking using a Hidex Sense plate reader. The potency of NUDT5 inhibitors was assessed similarly as above (and in the screening campaign) by monitoring ADPR hydrolysis; details are in the Supplementary Information.
Small molecule library composition
The screen for NUDT5 inhibitors was conducted at Chemical Biology Consortium Sweden (www.cbcs.se). Two screening campaigns completed in August 2012 and in March 2013 respectively comprised a combination of in-house and commercially available libraries, amounting to a total of 75679 compounds. The commercial compounds originate from Enamine, TimTec, MayBridge and ChemDiv. The in-house libraries were donated by Biovitrum AB, Sweden (the origin and composition is described previously)2. For long-term storage, the compounds are kept frozen at - 20°C as 10 mM solutions in dimethyl sulfoxide (DMSO) under low humidity conditions in REMP 96 Storage Tube Racks in a REMP Small-Size Store™. To facilitate screening an aliquot of the stock solutions have been transferred to Labcyte 384 LDV plates (LP-0200) to enable dispensing using an Echo 550™ acoustic liquid handler (LabCyte). For both screening campaigns 40 nl of the compound solutions were dispensed directly into columns 1-22 of the 384-well assay plates (Nunc 242757), while columns 23 and 24 were reserved for controls as outlined below. The plates were sealed with a Peelable Aluminium seal (Agilent 24210-001) using a PlateLoc thermal microplate sealer (Agilent) and kept at room temperature until used. The final compound concentration in the screen was 10 µM with a final DMSO concentration of […]
Enzymatic assay applied for screening and hit confirmation […]

Series [4] in a line: SafetyScreen 44 and ExpresSDiversity kinase panels (Eurofins Cerep Panlabs). The settings on record: 10 µM. Details: species or system human. How it is done:
TH5427 selectivity was also studied with the SafetyScreen44™ Panel and ExpresSDiversity Kinase Panel from Eurofins Cerep Panlabs at 10 µM, according to the company’s procedures.

For the molecule `CCN1CCN(c2nc3c(c(=O)n(C)c(=O)n3C)n2Cc2nnc(-c3ccc(Cl)c(Cl)c3)o2)CC1` [TH5424], the “NUDT5 stabilization in cell lysates” value in series [1] is reported as “showed the most stabilization of NUDT5 in cell lysates”. In series [2], the “toxicity in T47D cells” value is given as “generally non-toxic when used below 20 µM”. Further, the IC50 (in general, the concentration needed to halve the response being measured) in series [3] was determined as 39 nM.
With `Cn1c(=O)c2c(nc(N3CCNCC3)n2Cc2nnc(-c3ccc(Cl)c(Cl)c3)o2)n(C)c1=O` [TH5427], the “off-target interactions in panels” value in series [4] is reported as “only displayed a few significant interactions”. Also, the “NUDT5 stabilization in cell lysates” value in series [1] is recorded as “showed the most stabilization of NUDT5 in cell lysates”. Further, the “toxicity in T47D cells” value in series [2] is “generally non-toxic when used below 20 µM”. The IC50 in series [3] was 29.1 nM and 29 nM.

Source of the values: paper PMC5772648, “Targeted NUDT5 inhibitors block hormone signaling in breast cancer cells” (Nature Communications, 2018).
